In the CheMixHub ionic liquid set:
± gives the uncertainty stated by the source.

Assay: xn = mol fraction of the nth substance listed
Settings: 100 kPa

CN1CCCN(C)C1=O + CCCCCCCCn1cc[n+](C)c1.[Cl-]
viscosity [mPa·s]
Settings | 288.15 K | 293.15 K | 298.15 K | 303.15 K | 308.15 K | 313.15 K | 318.15 K | 323.15 K | 328.15 K | 333.15 K
x2 = 0 | 4 ± 0.16 | 3.51 ± 0.14 | 3.11 ± 0.13 | 2.78 ± 0.11 | 2.5 ± 0.1 | 2.266 ± 0.093 | 2.064 ± 0.085 | 1.891 ± 0.077 | 1.737 ± 0.071 | 1.595 ± 0.065
x2 = 0.0999 | 15.3 ± 0.71 | 12.48 ± 0.55 | 9.9 ± 0.43 | 8.46 ± 0.37 | 7.27 ± 0.31 | 6.32 ± 0.27 | 5.53 ± 0.24 | 4.88 ± 0.21 | 4.35 ± 0.18 | 3.9 ± 0.16
x2 = 0.1998 | 52.2 ± 2.4 | 40.6 ± 1.8 | 31.8 ± 1.4 | 25.6 ± 1.1 | 21.04 ± 0.91 | 17.5 ± 0.75 | 14.79 ± 0.63 | 12.66 ± 0.54 | 10.9 ± 0.46 | 9.46 ± 0.4
x2 = 0.2997 | 176 ± 10 | 128.8 ± 6.6 | 95.4 ± 4.4 | 78.6 ± 3.4 | 61.1 ± 2.6 | 48.4 ± 2 | 39 ± 1.6 | 31.9 ± 1.3 | 26.4 ± 1.1 | 21.86 ± 0.91
x2 = 0.4004 | 412 ± 32 | 287 ± 20 | 224 ± 14 | 163.5 ± 9 | 122 ± 6.1 | 93.5 ± 4.3 | 72.9 ± 3.1 | 57.5 ± 2.4 | 46.8 ± 1.9 | 38.3 ± 1.6
x2 = 0.4993 | 1016 ± 100 | 673 ± 61 | 463 ± 37 | 326 ± 23 | 248 ± 16 | 192 ± 11 | 144.4 ± 7.6 | 107.7 ± 5.1 | 84.2 ± 3.7 | 67.5 ± 2.8
x2 = 0.5981 | 2302 ± 300 | 1467 ± 170 | 972 ± 98 | 661 ± 59 | 462 ± 37 | 340 ± 24 | 250 ± 16 | 186 ± 11 | 143.4 ± 7.5 | 110.7 ± 5.3
x2 = 0.6984 | – | – | 1797 ± 220 | 1194 ± 130 | 815 ± 78 | 575 ± 49 | 412 ± 32 | 311 ± 22 | 233 ± 15 | 178 ± 10
x2 = 0.7997 | – | – | – | 1924 ± 240 | 1289 ± 140 | 890 ± 87 | 632 ± 56 | 458 ± 36 | 340 ± 24 | 257 ± 17

CCCCCCCCCCCCCC[P+](CCCCCC)(CCCCCC)CCCCCC.c1nnn[n-]1 + CCCCCC[n+]1ccn(C)c1.O=S(=O)([N-]S(=O)(=O)C(F)(F)F)C(F)(F)F
Settings | viscosity [mPa·s]
283.15 K, x2 = 0.102 | 1711 ± 240
283.15 K, x2 = 0.299 | 1361 ± 180
283.15 K, x2 = 0.6 | 662 ± 86
283.15 K, x2 = 0.8 | 342 ± 43
288.15 K, x2 = 0.102 | 1155 ± 150
288.15 K, x2 = 0.201 | 1055 ± 140
288.15 K, x2 = 0.8 | 247 ± 31
288.15 K, x2 = 0.9 | 158 ± 19
298.15 K, x2 = 0.102 | 567 ± 73
298.15 K, x2 = 0.6 | 245 ± 30
303.15 K, x2 = 0.201 | 382 ± 48
303.15 K, x2 = 0.701 | 145 ± 18
308.15 K, x2 = 0.201 | 286 ± 36
308.15 K, x2 = 0.299 | 253 ± 31
308.15 K, x2 = 0.8 | 86 ± 10
308.15 K, x2 = 0.9 | 59 ± 7
313.15 K, x2 = 0.6 | 112 ± 14
318.15 K, x2 = 0.349 | 141 ± 17
